According to US8247211B2, “Glycopeptide antibiotics” (American Cyanamid Company, priority 2001, dated 2012):
Values after ≈ are worked out from the molar mass of the structure shown.

How the values were obtained:
Test in all cases: In vitro antibacterial evaluation: minimum inhibitory concentration (MIC), broth dilution method
Assay type in all cases: cell-based
Enterococcus sp. = system: Enterococcus sp.
Summary of the method: (§1)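 MIC read as lowest drug level preventing visible growth. Organisms at 5×10^5 CFU/mL were exposed to a 64-0.06 μg/mL dilution series in Muller-Hinton II […] following NCCLS broth dilution standard M7-A2.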

Staphylococcus sp. = details: broth dilution, 18 hours at 35° C.
Summary of the method: as §1

Escherichia coli = system: Escherichia coli
Summary of the method: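 An MIC is reported for each organism as the least concentration giving inhibition, using broth dilution over 64-0.06 μg/mL with a 5×10^5 CFU/mL inoculum.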

Streptococcus sp. = system: Streptococcus sp.
Summary of the method: as §1

[1] = broth dilution, inoculum 5×10^5 CFU/mL, 18 hours at 35° C.

MIC Enterococcus avium (GC 4558) (Enterococcus sp.; [1]): >64 µg/mL
MIC Enterococcus faecalis (ATCC 29212) (Enterococcus sp.; [1]): >64 µg/mL
MIC Enterococcus faecalis (GC 2242) (Enterococcus sp.; [1]): >64 µg/mL
MIC Enterococcus faecalis (GC 2691) (Enterococcus sp.; [1]): >64 µg/mL
MIC Enterococcus faecalis (GC 3059) (Enterococcus sp.; [1]): >64 µg/mL
MIC Enterococcus faecalis (GC 4552) (Enterococcus sp.; [1]): >64 µg/mL
MIC Enterococcus faecalis (GC 4553) (Enterococcus sp.; [1]): >64 µg/mL
MIC Enterococcus faecalis (GC 4554) (Enterococcus sp.; [1]): >64 µg/mL
MIC Enterococcus faecalis (GC 6189) (Enterococcus sp.; [1]): >64 µg/mL
MIC Enterococcus faecium (GC 2243) (Enterococcus sp.; [1]): >64 µg/mL
MIC Enterococcus faecium (GC 4556) (Enterococcus sp.; [1]): >64 µg/mL
MIC Enterococcus faecium (GC 4557) (Enterococcus sp.; [1]): 32 µg/mL (≈ 21.7 µM)
MIC Enterococcus faecalis (ATCC 29212) (Enterococcus sp.; strain ATCC 29212): >64 µg/mL
MIC Enterococcus faecalis (GC 2242) (Enterococcus sp.; strain GC 2242): >64 µg/mL
MIC Enterococcus faecium (GC 2243) (Enterococcus sp.; strain GC 2243): >64 µg/mL
MIC Enterococcus faecalis (GC 2691) (Enterococcus sp.; strain GC 2691): >64 µg/mL
MIC Enterococcus faecalis (GC 3059) (Enterococcus sp.; strain GC 3059): >64 µg/mL
MIC Enterococcus faecalis (GC 4552) (Enterococcus sp.; strain GC 4552): >64 µg/mL
MIC Enterococcus faecalis (GC 4553) (Enterococcus sp.; strain GC 4553): >64 µg/mL
MIC Enterococcus faecalis (GC 4554) (Enterococcus sp.; strain GC 4554): >64 µg/mL
MIC Enterococcus faecium (GC 4556) (Enterococcus sp.; strain GC 4556): >64 µg/mL
MIC Enterococcus faecium (GC 4557) (Enterococcus sp.; strain GC 4557): 32 µg/mL (≈ 21.7 µM)
MIC Enterococcus avium (GC 4558) (Enterococcus sp.; strain GC 4558): >64 µg/mL
MIC Enterococcus faecalis (GC 6189) (Enterococcus sp.; strain GC 6189): >64 µg/mL
MIC Coagulase Negative Staphylococcus (GC 4547) (Staphylococcus sp.; 5×10^5 CFU/mL): 32 µg/mL (≈ 21.7 µM)
MIC Coagulase Negative Staphylococcus (GC 4548) (Staphylococcus sp.; 5×10^5 CFU/mL): 32 µg/mL (≈ 21.7 µM)
MIC Coagulase Negative Staphylococcus (GC 4549) (Staphylococcus sp.; 5×10^5 CFU/mL): 16 µg/mL (≈ 10.9 µM)
MIC Coagulase Negative Staphylococcus (GC 4551) (Staphylococcus sp.; 5×10^5 CFU/mL): >64 µg/mL
MIC Coagulase Negative Staphylococcus (GC 6257) (Staphylococcus sp.; 5×10^5 CFU/mL): 8 µg/mL (≈ 5.43 µM)
MIC Staphylococcus aureus (ATCC 29213) (Staphylococcus sp.; 5×10^5 CFU/mL): 32 µg/mL (≈ 21.7 µM)
MIC Staphylococcus aureus (GC 1131) (Staphylococcus sp.; 5×10^5 CFU/mL): 32 µg/mL (≈ 21.7 µM)
MIC Staphylococcus aureus (GC 3051) (Staphylococcus sp.; 5×10^5 CFU/mL): 32 µg/mL (≈ 21.7 µM)
MIC Staphylococcus aureus (GC 3053) (Staphylococcus sp.; 5×10^5 CFU/mL): >64 µg/mL
MIC Staphylococcus aureus (GC 4541) (Staphylococcus sp.; 5×10^5 CFU/mL): 32 µg/mL (≈ 21.7 µM)
MIC Staphylococcus aureus (GC 4542) (Staphylococcus sp.; 5×10^5 CFU/mL): 32 µg/mL (≈ 21.7 µM)
MIC Staphylococcus aureus (GC 4544) (Staphylococcus sp.; 5×10^5 CFU/mL): 32 µg/mL (≈ 21.7 µM)
MIC Staphylococcus aureus (GC 4545) (Staphylococcus sp.; 5×10^5 CFU/mL): 32 µg/mL (≈ 21.7 µM)
MIC Staphylococcus aureus-SMITH (GC 4543) (Staphylococcus sp.; 5×10^5 CFU/mL): 32 µg/mL (≈ 21.7 µM)
MIC Staphylococcus aureus (ATCC 29213) (Staphylococcus sp.; strain ATCC 29213): 32 µg/mL (≈ 21.7 µM)
MIC Staphylococcus aureus (GC 1131) (Staphylococcus sp.; strain GC 1131): 32 µg/mL (≈ 21.7 µM)
MIC Staphylococcus aureus (GC 3051) (Staphylococcus sp.; strain GC 3051): 32 µg/mL (≈ 21.7 µM)
MIC Staphylococcus aureus (GC 3053) (Staphylococcus sp.; strain GC 3053): >64 µg/mL
MIC Staphylococcus aureus (GC 4541) (Staphylococcus sp.; strain GC 4541): 32 µg/mL (≈ 21.7 µM)
MIC Staphylococcus aureus (GC 4542) (Staphylococcus sp.; strain GC 4542): 32 µg/mL (≈ 21.7 µM)
MIC Staphylococcus aureus (GC 4544) (Staphylococcus sp.; strain GC 4544): 32 µg/mL (≈ 21.7 µM)
MIC Staphylococcus aureus (GC 4545) (Staphylococcus sp.; strain GC 4545): 32 µg/mL (≈ 21.7 µM)
MIC Escherichia coli (ATCC 25922) (Escherichia coli; strain ATCC 25922): >64 µg/mL
MIC Escherichia coli (GC 4559) (Escherichia coli; strain GC 4559): >64 µg/mL
MIC Escherichi coli (GC 4560) (Escherichia coli; strain GC 4560): 8 µg/mL (≈ 5.43 µM)
MIC Streptococcus agalactiae (GC 4564) (Streptococcus sp.; [1]): 32 µg/mL (≈ 21.7 µM)
MIC Streptococcus pneumoniae (ATCC 6301) (Streptococcus sp.; [1]): 8 µg/mL (≈ 5.43 µM)
MIC Streptococcus pneumoniae (GC 1894) (Streptococcus sp.; [1]): 8 µg/mL (≈ 5.43 µM)
MIC Streptococcus pneumoniae (GC 4565) (Streptococcus sp.; [1]): 8 µg/mL (≈ 5.43 µM)
MIC Streptococcus pyogenes (GC 4563) (Streptococcus sp.; [1]): 16 µg/mL (≈ 10.9 µM)
MIC Streptococcus pneumoniae (ATCC 6301) (Streptococcus sp.; strain ATCC 6301): 8 µg/mL (≈ 5.43 µM)
MIC Streptococcus pneumoniae (GC 1894) (Streptococcus sp.; strain GC 1894): 8 µg/mL (≈ 5.43 µM)
MIC Streptococcus pyogenes (GC 4563) (Streptococcus sp.; strain GC 4563): 16 µg/mL (≈ 10.9 µM)
MIC Streptococcus agalactiae (GC 4564) (Streptococcus sp.; strain GC 4564): 32 µg/mL (≈ 21.7 µM)
MIC Streptococcus pneumoniae (GC 4565) (Streptococcus sp.; strain GC 4565): 8 µg/mL (≈ 5.43 µM)
Compound: COc1cc(C2OCC3OC(OC4C(CO)OC(Oc5ccc(CC6NC(=O)C(C(C)c7ccccc7)NC(=O)CNC(=O)C(CO)NC(=O)C(C(O)C7CNC(=N)N7C7OC(CO)C(O)C(O)C7O)NC(=O)C(C(O)C7CNC(=N)N7)NC6=O)cc5)C(O)C4O)C(O)C(O)C3O2)cc([N+](=O)[O-])c1O (stereo not drawn) [Example 169, Cyclo[glycyl-β-methylphenylalanyl-O-[4-O-[4,6-O-(4-hydroxy-3-methoxy-4-nitro-benzylidene)hexopyranosyl]hexopyranosyl]tyrosyl-3-(2-iminoimidazolidin-4-yl)seryl-3-(3-hexopyranosyl-2-iminoimidazolidin-4-yl)serylseryl]]
MIC Staphylococcus haemolyticus (GC 4546) (Staphylococcus sp.; 5×10^5 CFU/mL): 32 µg/mL (≈ 21.7 µM)
